The assay deals with Escherichia coli cell genome. As to the kind of experiment: Targeted insertion of lacZ::kan by homologous recombination from N-AcO-AAF-treated pCUL-lacZ::kan plasmid (white/total colonies). The conditions noted are these: for Recombination frequency: white colonies/total colonies / Total number of colonies/number of recombined colonies: E. coli. The assay is classed as cell-based. As to the method: Reaction mixture • Plasmid DNA: Final concentration of 0.5 μg/μl in 2×10^−3 M citrate buffer, pH 7 • N-AcO-AAF: Final concentration of 400 μg/ml in ethanol.
60 μg DNA are added in 114 μl of 2×10^−3 M citrate buffer, pH7, added with 3 μl of ethanol at 100%.
The solution is preheated at 37° C.; then 3 μl of N-AcO-AAF (400 μg/ml) are added, marked with tritium (^3H).
Reaction time: 4, 8, 20 minutes.
40 μl are taken at the various selected times. The reaction is stopped by a DNA precipitation step with 3 volumes of ethanol/sodium acetate 0.16M followed by three other precipitation steps under the same conditions.
The percentage of modified bases is determined measuring the number of plasmid mols through UV spectrophotometry and the number of bound AAF mols, through βradioactivity counting.
The result is expressed in percentage of modified bases. The reaction time is adapted as a function of the size of the plasmid and the desired percentage of modified bases.
E. coli cells are transformed following the conventional electroporation method by using the conditions recommended by the device manufacturers to this end (Gene Pulser from Biorad for example).
In the example, transformant clones are selected on a LB-agar medium containing kanamycin (20 μg/ml) and the lack of β-galactosidase activity (being expressed by white colonies instead of blue ones), i.e. a phenotype typical of a non reciprocal recombination event is visualized by means of the presence of X-gal (5-bromo-4-chloro-3-indolyl-β-D-galactopyranoside) and IPTG (isopropyl-β-D-thiogalactopyranoside) in the dishes.

With `CC(=O)ON(C(C)=O)c1ccc2c(c1)Cc1ccccc1-2` [N-AcO-AAF, N-acetoxy-2-acetylaminofluorene], the “Recombination frequency: white colonies/total colonies” value runs as follows: (10 AAF injuries per plasmid) 0.056; (20 AAF injuries per plasmid) 0.17; (33 AAF injuries per plasmid) 0.32; (43 AAF injuries per plasmid) 1.41; (67 AAF injuries per plasmid) 6.07. In addition, the “Total number of colonies/number of recombined colonies” value (10 AAF injuries per plasmid) is 17819/10; the “Total number of colonies/number of recombined colonies” value (20 AAF injuries per plasmid) was 9692/17; the “Total number of colonies/number of recombined colonies” value (33 AAF injuries per plasmid) was determined as 2301975; the “Total number of colonies/number of recombined colonies” value (43 AAF injuries per plasmid) was 16554/237; the “Total number of colonies/number of recombined colonies” value (67 AAF injuries per plasmid) is given as 1934/125. Where the note is “67 AAF injuries on the plasmid, wild strain for recombination systems”, the targeted recombinant molecules result was “more than 6%”. Also, the “increase in the recombination frequency” value (67 AAF injuries versus spontaneous events) is “more than 1,700 fold”. Moreover, the “frequency of homologous recombination events” value is reported as “more than 600×10^−4” (67 molecules of N-AcO-AAF per molecule of the DNA vector) and 5.61×10^−4 (ten molecules of N-AcO-AAF per molecule of the DNA vector). Further, the “frequency of non reciprocal homologous recombination events from the DNA vector to the chromosome” value (N-AcO-AAF bound onto the polynucleotide) is given as “higher than 0.05 homologous recombination events per transfected cell”.

For the origin of these results see patent US8609419B2, “Method for inserting a nucleic acid of interest into a prokaryotic or eukaryotic cell by homologous recombination” (Centre National de la Recherche Scientifique, priority 2002, dated 2013).
